Assay [1] deals with Sodium- and chloride-dependent glycine transporter 1 (Mus musculus) (UniProt P28571). The experiment in a line: Inhibition of mouse GlyT1 expressed in porcine aorta […] cells assessed as reduction in [3H]-Glycine uptake incubated for 10 mins at pH 7.4 by scintillation spectroscopy.
Assay [2] has the same target. The experiment in a line: Inhibition of mouse GlyT1 expressed in porcine aorta […] cells assessed as reduction in [3H]-Glycine uptake incubated for 10 mins at pH 7.4 by scintillation spectroscopy relative to untreated control.

IC50 and inhibition data for four molecules are collected here from ChEMBL document CHEMBL4433245, “Discovery of GlyT2 Inhibitors Using Structure-Based Pharmacophore Screening and Selectivity Studies by FEP+ Calculations” (ACS Med Chem Lett, 2019).

Chain of Sodium- and chloride-dependent glycine transporter 1 (Mus musculus) (P28571 whole entry, looked up): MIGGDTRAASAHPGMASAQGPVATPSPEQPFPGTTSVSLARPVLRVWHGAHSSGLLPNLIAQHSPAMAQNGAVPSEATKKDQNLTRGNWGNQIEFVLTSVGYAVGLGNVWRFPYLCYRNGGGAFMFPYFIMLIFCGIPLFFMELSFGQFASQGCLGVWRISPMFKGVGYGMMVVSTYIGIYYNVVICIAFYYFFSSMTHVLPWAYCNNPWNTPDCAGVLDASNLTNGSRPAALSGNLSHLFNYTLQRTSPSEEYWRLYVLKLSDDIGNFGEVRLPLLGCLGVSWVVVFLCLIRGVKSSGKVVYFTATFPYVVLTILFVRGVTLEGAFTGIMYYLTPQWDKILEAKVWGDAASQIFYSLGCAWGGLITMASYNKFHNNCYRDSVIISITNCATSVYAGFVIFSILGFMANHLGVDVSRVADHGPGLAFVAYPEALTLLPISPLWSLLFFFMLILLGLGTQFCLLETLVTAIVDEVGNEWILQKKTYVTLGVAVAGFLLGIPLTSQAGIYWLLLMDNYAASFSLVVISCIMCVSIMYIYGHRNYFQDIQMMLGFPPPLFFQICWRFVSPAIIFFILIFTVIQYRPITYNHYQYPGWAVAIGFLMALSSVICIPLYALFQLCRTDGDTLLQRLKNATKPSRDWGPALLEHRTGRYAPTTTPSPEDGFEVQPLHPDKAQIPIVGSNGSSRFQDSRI

In the case of `O=C(O)CCCCSc1ncnc2[nH]c(=O)[nH]c12`, the IC50 in assay [1] was over 200 µM.

As for `O=c1[nH]c2c(c(=O)[nH]1)CCN(Cc1ccccc1)C2`, the IC50 in assay [1] was over 200 µM. `CN(CC[C@@H](Oc1ccc(-c2ccccc2)cc1)c1ccc(F)cc1)CC(=O)O`: in assay [2], the inhibition stood at 80%. For the molecule `O=C(O)CCSc1[nH]c(=O)nc2[nH]c(=O)[nH]c12`, the IC50 in assay [1] was over 200 µM.

A word on the IC50: it is the concentration that inhibits the measured activity by half. The term inhibition denotes the drop in the measured response relative to a control, in per cent.
